Source: patent US20180099931A1 (AbbVie S.à.r.l., priority 2016, published 2018)
Where two headings read alike, the source gives them in different places.

Biological target: T1, F508delCFTR (Homo sapiens, UniProt P13569, DEL508-508)
T1 construct: expressed in transfected cells; host or cells: CFBE41o- human lung-derived epithelial cells (CFBE4lo-F508delCFTR-HRP), doxycycline-inducible
Assay: Cell Surface Expression-Horse Radish Peroxidase (CSE-HRP) Assay;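 for Maximum % activity (with co-corrector): co-corrector and positive control are both the same reference corrector at 2 µM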;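 for Maximum % activity (without co-corrector): percent of the 2 µM on-plate positive control corrector response above DMSO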
Assay type: cell-based
Conditions: for Maximum % activity (with co-corrector): with co-corrector (2 μM); for Maximum % activity (with co-corrector) / Emax: maximum at any tested concentration, normalized to on-plate positive control; for Emax: without co-corrector, read-out: Maximum % activity (without co-corrector)

[1] = test compound without co-corrector, read-out: EC50 (without co-corrector)
[2] = with co-corrector (2 μM of 3-[(2R,4R)-4-({[1-(2,2-difluoro-1,3-benzodioxol-5-yl)cyclopropyl]carbonyl}amino)-7-methoxy-3,4-dihydro-2H-chromen-2-yl]benzoic acid), read-out: EC50 (with co-corrector)
[3] = CSE-HRP, test compound without co-corrector, read-out: EC50 (without co-corrector)
[4] = CSE-HRP, with co-corrector (2 μM of 3-[(2R,4R)-4-({[1-(2,2-difluoro-1,3-benzodioxol-5-yl)cyclopropyl]carbonyl}amino)-7-methoxy-3,4-dihydro-2H-chromen-2-yl]benzoic acid), read-out: EC50 (with co-corrector)

T1 sequence (P13569 with tags, fused parts or gaps DEL508-508): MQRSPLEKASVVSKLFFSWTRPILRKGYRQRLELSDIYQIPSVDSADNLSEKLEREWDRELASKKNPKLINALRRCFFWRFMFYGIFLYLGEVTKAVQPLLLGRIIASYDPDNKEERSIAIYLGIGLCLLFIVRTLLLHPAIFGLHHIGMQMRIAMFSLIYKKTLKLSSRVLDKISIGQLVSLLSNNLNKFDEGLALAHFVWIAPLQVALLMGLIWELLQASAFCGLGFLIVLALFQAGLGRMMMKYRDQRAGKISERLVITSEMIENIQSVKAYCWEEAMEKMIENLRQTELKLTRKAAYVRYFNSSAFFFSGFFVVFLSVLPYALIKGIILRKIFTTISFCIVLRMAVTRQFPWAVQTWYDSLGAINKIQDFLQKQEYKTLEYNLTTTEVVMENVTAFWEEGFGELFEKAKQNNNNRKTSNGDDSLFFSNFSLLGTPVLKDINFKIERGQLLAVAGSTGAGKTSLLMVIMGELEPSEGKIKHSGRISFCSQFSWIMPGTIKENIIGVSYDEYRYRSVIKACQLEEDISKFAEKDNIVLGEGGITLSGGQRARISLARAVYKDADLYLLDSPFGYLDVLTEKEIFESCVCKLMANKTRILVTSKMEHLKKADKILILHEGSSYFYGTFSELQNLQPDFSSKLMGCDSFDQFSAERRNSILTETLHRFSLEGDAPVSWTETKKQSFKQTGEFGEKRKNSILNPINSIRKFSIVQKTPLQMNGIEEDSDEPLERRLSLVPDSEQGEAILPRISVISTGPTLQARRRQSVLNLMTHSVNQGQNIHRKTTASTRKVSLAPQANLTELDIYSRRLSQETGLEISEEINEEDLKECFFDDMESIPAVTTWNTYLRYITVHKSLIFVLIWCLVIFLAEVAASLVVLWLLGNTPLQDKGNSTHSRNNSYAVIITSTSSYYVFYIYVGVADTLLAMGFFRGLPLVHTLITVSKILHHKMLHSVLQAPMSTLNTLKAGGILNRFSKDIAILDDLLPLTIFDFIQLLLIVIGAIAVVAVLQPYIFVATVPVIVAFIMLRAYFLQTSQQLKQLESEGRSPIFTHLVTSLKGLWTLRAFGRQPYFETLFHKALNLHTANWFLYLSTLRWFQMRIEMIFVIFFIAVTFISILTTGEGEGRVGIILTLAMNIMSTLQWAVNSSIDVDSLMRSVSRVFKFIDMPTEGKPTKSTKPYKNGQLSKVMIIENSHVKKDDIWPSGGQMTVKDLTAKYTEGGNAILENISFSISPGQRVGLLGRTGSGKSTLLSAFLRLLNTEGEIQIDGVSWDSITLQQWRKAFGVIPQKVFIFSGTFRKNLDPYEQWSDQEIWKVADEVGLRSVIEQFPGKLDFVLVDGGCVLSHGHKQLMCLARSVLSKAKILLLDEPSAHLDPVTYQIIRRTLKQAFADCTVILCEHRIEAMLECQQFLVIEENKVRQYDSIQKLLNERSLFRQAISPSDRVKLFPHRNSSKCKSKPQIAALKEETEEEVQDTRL

SMILES	EC50 [1] [nM]	EC50 [2] [nM]	Maximum % activity (with co-corrector)	Emax [%]	EC50 [3] [nM]	EC50 [4] [nM]	Maximum % activity (with co-corrector) (CSE-HRP)	Emax (CSE-HRP) [%]
COc1ccc(C(C)(C)C)cc1CN[C@H]1[C@H](C(C)(C)C)[C@@H](C(=O)O)N(C(=O)[C@@H]2OCC[C@@H]2C(C)C)[C@H]1c1ccccc1 (relative stereo) [Example I-104, (2S,3S,4S,5S)-3-tert-butyl-4-{[(5-tert-butyl-2-methoxyphenyl)methyl]amino}-5-phenyl-1-[(2R*,3R*)-3-(propan-2-yl)oxolane-2-carbonyl]pyrrolidine-2-carboxylic acid]	1000 to 10000	1000 to 10000	+++ (≥350)	100 to 200				
COc1ccc(C(F)(F)F)cc1CN[C@H]1[C@H](C(C)(C)C)[C@@H](C(=O)O)N(C(=O)[C@@H]2OCC[C@@H]2C(C)C)[C@H]1c1ccccc1 (relative stereo) [Example I-105]	1000 to 10000	1000 to 10000	+++ (≥350)	< 100				
COc1ccc(C(F)(F)F)cc1CN[C@H]1[C@H](C(C)(C)C)[C@@H](C(=O)O)N(C(=O)[C@H]2OCC[C@H]2C(C)C)[C@H]1c1ccccc1 (relative stereo) [Example I-106]	1000 to 10000	1000 to 10000	+++ (≥350)	> 200				
COc1ccc(C(C)(C)C)cc1CN[C@H]1[C@H](C(C)(C)C)[C@@H](C(=O)O)N(C(=O)C2OC[C@@H]3CCC[C@H]23)[C@H]1c1ccccc1 (relative stereo) [Example I-107]	1000 to 10000	1000 to 10000	+++ (≥350)	> 200				
COc1ccc(C(F)(F)F)cc1CN[C@H]1[C@H](C(C)(C)C)[C@@H](C(=O)O)N(C(=O)C2OC[C@@H]3CCC[C@H]23)[C@H]1c1ccccc1 (relative stereo) [Example I-108]	1000 to 10000	1000 to 10000	+++ (≥350)	100 to 200				
COc1ccc(C(C)(C)C)cc1CN[C@H]1[C@H](C(C)(C)C)[C@@H](C(=O)O)N(C(=O)[C@@H]2C[C@H]2c2cccnc2)[C@H]1c1ccccc1 (relative stereo) [Example I-139]	1000 to 10000	1000 to 10000	+++ (≥350)	> 200				
COc1ccc(C(C)(C)C)cc1CN[C@H]1[C@H](C(C)(C)C)[C@@H](C(=O)O)N(C(=O)C(OC)c2ccc(F)c(F)c2)[C@H]1c1ccccc1 (relative stereo) [Example I-159]	< 1000	< 1000	+++ (≥350)	> 200				
COc1ccc(C(C)(C)C)cc1CN[C@H]1[C@H](C(C)(C)C)[C@@H](C(=O)O)N(C(=O)[C@@H]2OCC[C@@H]2c2ccccc2)[C@H]1c1ccccc1 (relative stereo) [Example I-178]	1000 to 10000	1000 to 10000	+++ (≥350)	100 to 200				
COc1ccc(C(C)(C)C)cc1CN[C@H]1[C@H](C(C)(C)C)[C@@H](C(=O)O)N(C(=O)[C@H]2OCC[C@H]2c2ccccc2)[C@H]1c1ccccc1 (relative stereo) [Example I-179]	1000 to 10000	1000 to 10000	+++ (≥350)	100 to 200				
COc1ccc(C(C)(C)C)cc1CN[C@H]1[C@H](C(C)(C)C)[C@@H](C(=O)O)N(C(=O)C2CCCCO2)[C@H]1c1ccccc1 (relative stereo) [Example I-193]	1000 to 10000	1000 to 10000	+++ (≥350)	> 200				
COc1ccc(C(C)(C)C)cc1CN[C@H]1[C@H](C(C)(C)C)[C@@H](C(=O)O)N(C(=O)[C@@H](C)[C@@H]2CCCCO2)[C@H]1c1ccccc1 (relative stereo) [Example I-195]	1000 to 10000	1000 to 10000	+++ (≥350)	> 200				
COc1ccc(C(C)(C)C)cc1CN[C@H]1[C@H](C(C)(C)C)[C@@H](C(=O)O)N(C(=O)[C@H](C)[C@H]2CCCCO2)[C@H]1c1ccccc1 (relative stereo) [Example I-196]	1000 to 10000	1000 to 10000	+++ (≥350)	> 200				
COc1nc(C(C)(C)C)ccc1CN[C@H]1[C@H](C(C)(C)C)[C@@H](C(=O)O)N(C(=O)[C@@H]2CCC[C@H](OC)C2)[C@H]1c1ccccc1 (relative stereo) [Example I-198]	1000 to 10000	1000 to 10000	+++ (≥350)	< 100				
COc1ccc(C(C)(C)C)cc1CN[C@H]1[C@H](C(C)(C)C)[C@@H](C(=O)O)N(C(=O)[C@@H]2[C@@H](C(F)(F)F)[C@@H]3CC[C@H]2O3)[C@H]1c1cccnc1N(C)C (relative stereo) [Example I-204]	< 1000	< 1000	+++ (≥350)	> 200				
COc1ncc(C2CCC2)cc1CN[C@H]1[C@H](C(C)(C)C)[C@@H](C(=O)O)N(C(=O)C2COc3ccccc3O2)[C@H]1c1ccccc1 (relative stereo) [Example I-205]	1000 to 10000	1000 to 10000	++ (≥150 and <350)	< 100				
COc1ccc(C(C)(C)C)cc1CN[C@H]1[C@H](C(C)(C)C)[C@@H](C(=O)O)N(C(=O)[C@H]2[C@H](C(F)(F)F)[C@H]3CC[C@@H]2O3)[C@H]1c1ccccc1OC(F)F (relative stereo) [Example I-223]	1000 to 10000	< 1000	+++ (≥350)	100 to 200				
COc1ccc(C(C)(C)C)cc1CN[C@H]1[C@H](C(C)(C)C)[C@@H](C(=O)O)N(C(=O)[C@@H]2C[C@H]3CC[C@@H]2O3)[C@H]1c1ccccc1 (relative stereo) [Example I-241]	1000 to 10000	1000 to 10000	+++ (≥350)	> 200				
COc1ccc(C(F)(F)F)cc1CN[C@H]1[C@H](C(C)(C)C)[C@@H](C(=O)O)N(C(=O)C2CCCC(F)(F)C2)[C@H]1c1cccnc1OC (relative stereo) [Example I-256]					1000 to 10000	< 1000	+++ (≥350)	> 200
COc1cc(C(F)(F)F)ccc1CN[C@H]1[C@H](C(C)(C)C)[C@@H](C(=O)O)N(C(=O)C2CCCC(F)(F)C2)[C@H]1c1cccnc1OC (relative stereo) [Example I-257]					1000 to 10000	< 1000	+++ (≥350)	100 to 200
COc1ncc(C2CCC2)cc1CN[C@H]1[C@H](C(C)(C)C)[C@@H](C(=O)O)N(C(=O)[C@@H]2CCC[C@H](C(F)(F)F)C2)[C@H]1c1ccccc1 (relative stereo) [Example I-259]					1000 to 10000	1000 to 10000	+++ (≥350)	100 to 200
COc1ncc(C2CCC2)cc1CN[C@H]1[C@H](C(C)(C)C)[C@@H](C(=O)O)N(C(=O)[C@H]2CCC[C@@H](C(F)(F)F)C2)[C@H]1c1ccccc1 (relative stereo) [Example I-260]					1000 to 10000	1000 to 10000	++ (≥150 and <350)	< 100
COc1ncc(C(F)(F)F)cc1CN[C@H]1[C@H](C(C)(C)C)[C@@H](C(=O)O)N(C(=O)[C@H]2C[C@@H]3CC[C@H]2O3)[C@H]1c1ccccc1C(C)C (relative stereo) [Example I-270]					< 1000	< 1000	+++ (≥350)	> 200
COc1cc(Cl)ccc1CN[C@H]1[C@H](C(C)(C)C)[C@@H](C(=O)O)N(C(=O)[C@H](OC)c2ccccc2)[C@H]1c1ccccc1 (relative stereo) [II-54]					1000 to 10000	1000 to 10000	+++ (≥350)	> 200
COc1cc(C(F)(F)F)ccc1CN[C@H]1[C@H](C(C)(C)C)[C@@H](C(=O)O)N(C(=O)C2CCCCO2)[C@H]1c1cccnc1OC (relative stereo) [II-98]					1000 to 10000	1000 to 10000	+++ (≥350)	100 to 200
COc1ccc(C(C)(C)C)cc1CN[C@H]1[C@H](C(C)(C)C)[C@@H](C(=O)O)N(C(=O)[C@@H]2OCC[C@@H]2C)[C@H]1c1ccccc1 (relative stereo) [II-268]					1000 to 10000	1000 to 10000	+++ (≥350)	> 200
COc1ccc(C(C)(C)C)cc1CN[C@H]1[C@H](C(C)(C)C)[C@@H](C(=O)O)N(C(=O)[C@H]2OCC[C@H]2C)[C@H]1c1ccccc1 (relative stereo) [II-269]					1000 to 10000	1000 to 10000	+++ (≥350)	> 200
COc1ccc(C(F)(F)F)cc1CN[C@H]1[C@H](C(C)(C)C)[C@@H](C(=O)O)N(C(=O)[C@@H]2OCC[C@@H]2C)[C@H]1c1ccccc1 (relative stereo) [II-274]					1000 to 10000	1000 to 10000	+++ (≥350)	> 200
COc1ccc(C(C)(C)C)cc1CN[C@H]1[C@H](C(C)(C)C)[C@@H](C(=O)O)N(C(=O)C(OC)C(C)(C)C)[C@H]1c1ccccc1 (relative stereo) [II-297]					1000 to 10000	1000 to 10000	+++ (≥350)	< 100
